Results as given in US9796733B2, “Imidazo-pyrazine derivatives useful as soluble guanylate cyclase activators” (Merck Sharp & Dohme Corp., priority 2014, dated 2017).

Key:
sGC α1/β1 heterodimer = target: T1, sGC α1/β1 heterodimer (Homo sapiens, UniProt Q02108+Q02153); test: Cell-based sGC functional assay (CASA assay): cGMP generation in CHO-K1/sGC cells, HTRF detection; details: for Emax: CHO-K1, percent activation relative to standard Compound A in CHO-K1/sGC cells, read-out: % Act.; for EC50: inflection point (IP) of cGMP generation in CHO-K1/sGC cells, 4P fit, activity expressed as percentage of Compound A
T1 construct: expressed in transfected cells; host or cells: CHO-K1 (clone #7, CHO-K1/sGC)
T1 sequence (Q02108 1-690): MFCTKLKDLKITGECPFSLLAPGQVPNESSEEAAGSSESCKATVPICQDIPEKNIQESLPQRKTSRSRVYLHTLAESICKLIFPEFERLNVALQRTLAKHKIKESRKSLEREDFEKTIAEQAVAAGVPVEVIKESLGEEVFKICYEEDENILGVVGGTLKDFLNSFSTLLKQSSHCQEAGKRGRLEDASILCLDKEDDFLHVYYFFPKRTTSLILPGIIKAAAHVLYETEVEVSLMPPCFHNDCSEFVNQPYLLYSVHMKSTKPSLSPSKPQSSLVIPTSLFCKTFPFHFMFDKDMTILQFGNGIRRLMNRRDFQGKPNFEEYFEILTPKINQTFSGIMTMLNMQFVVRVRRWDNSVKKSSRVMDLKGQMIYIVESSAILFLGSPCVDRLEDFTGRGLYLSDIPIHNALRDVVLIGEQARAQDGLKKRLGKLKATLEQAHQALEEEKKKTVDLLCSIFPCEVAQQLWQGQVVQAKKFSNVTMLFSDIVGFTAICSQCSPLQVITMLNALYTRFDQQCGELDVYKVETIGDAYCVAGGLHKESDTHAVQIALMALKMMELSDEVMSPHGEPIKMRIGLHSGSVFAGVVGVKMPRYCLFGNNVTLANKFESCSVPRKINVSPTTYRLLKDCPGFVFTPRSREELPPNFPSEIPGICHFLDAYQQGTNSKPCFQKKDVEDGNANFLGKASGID
T1 sequence (Q02153 1-619): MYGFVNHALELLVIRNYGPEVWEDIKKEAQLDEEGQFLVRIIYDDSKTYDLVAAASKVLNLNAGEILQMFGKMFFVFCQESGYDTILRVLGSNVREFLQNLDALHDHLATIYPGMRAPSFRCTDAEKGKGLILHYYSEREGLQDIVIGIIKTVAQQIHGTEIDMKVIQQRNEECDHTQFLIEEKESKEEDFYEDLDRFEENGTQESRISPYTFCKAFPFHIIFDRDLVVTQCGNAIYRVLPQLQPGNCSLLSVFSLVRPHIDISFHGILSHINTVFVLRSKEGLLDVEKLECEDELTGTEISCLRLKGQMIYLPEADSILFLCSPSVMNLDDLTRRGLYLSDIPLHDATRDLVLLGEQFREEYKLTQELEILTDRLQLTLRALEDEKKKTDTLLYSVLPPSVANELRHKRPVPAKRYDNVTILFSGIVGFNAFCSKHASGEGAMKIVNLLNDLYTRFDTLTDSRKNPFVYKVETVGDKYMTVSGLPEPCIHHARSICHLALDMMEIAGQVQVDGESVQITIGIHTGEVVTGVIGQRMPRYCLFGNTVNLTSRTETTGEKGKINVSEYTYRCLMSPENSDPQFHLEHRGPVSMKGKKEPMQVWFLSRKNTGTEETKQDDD
Procedure, shortened: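 Stable CHO-K1/sGC cells in EBSS buffer with 5 mM MgCl2, 0.05% BSA and 0.5 mM IBMX were incubated with compound (2.5% DMSO final) ±1 μM DETA-NO for 1 hr at 37° C. cGMP was measured by HTRF. Activation is expressed as % of reference HDA Compound A maximum, with IP and max fold induction from a 4P fit.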

[1] = tested on: Spontaneously hypertensive rats (SHR); test: Acute efficacy in spontaneously hypertensive rats (SHR): telemetry blood pressure lowering after a single oral dose; format: in vivo, rat
Procedure, shortened: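 Male SHR carrying aortic telemetry implants (14-day recovery) received a single oral gavage of compound or vehicle (10% transcutol/20% Cremophor/70% water). Conscious blood pressure was sampled 30 s every 10 min and averaged hourly; change was taken against the prior-day vehicle baseline, reported as maximum peak SBP decrease at a given PO dose (mpk).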

| Structure (SMILES) | Emax (sGC α1/β1 heterodimer) | EC50 (sGC α1/β1 heterodimer) | Maximum peak decrease of systolic blood pressure (SBP) in SHR, Cat. ([1]; P.O. 3.0 mpk) | % Act. (sGC α1/β1 heterodimer; percent activation relative to standard Compound A in CHO-K1/sGC cells) | Maximum peak decrease of systolic blood pressure (SBP) in SHR, Cat. ([1]; P.O. 0.3 mpk) | Maximum peak decrease of systolic blood pressure (SBP) in SHR, Cat. ([1]; P.O. 1.0 mpk) |
| --- | --- | --- | --- | --- | --- | --- |
| CC1(c2ccc(F)cc2)C(=O)Nc2nc(-c3cn4ccnc4cn3)nc(N)c21 (stereo not drawn) [Example 134A, 4-amino-5-(4-fluorophenyl)-2-(imidazo[1,2-a]pyrazin-6-yl)-5-methyl-5H-pyrrolo[2,3-d]pyrimidin-6(7H)one] | 118% | 627 nM | B (Category B=SBP in SHRs 20-40 mmHg) | – | – | – |
| CNc1nc(-c2cn3ccnc3c(CCC(F)(F)C(F)(F)F)n2)nc2c1C(C)(c1ccc(F)cn1)C(=O)N2 (stereo not drawn) [Example 290B, 5-(5-fluoropyridin-2-yl)-5-methyl-4-(methylamino)-2-(8-(3,3,4,4,4-pentafluorobutyl)imidazo[1,2-a]pyrazin-6-yl)-5H-pyrrolo[2,3-d]pyrimidin-6(7H)-one] | 106% | 280 nM | B (Category B=SBP in SHRs 20-40 mmHg) | – | – | – |
| Nc1nc(-c2cn3ccnc3c(Cc3cccc(F)c3)n2)nc2c1C(C(=O)NC1CC1)(C1CC1)C(=O)N2 (single isomer, unassigned) [Example 38B, 4-amino-N,5-dicyclopropyl-2-(8-(3-fluorobenzyl)imidazo[1,2-a]pyrazin-6-yl)-6-oxo-6,7-dihydro-5H-pyrrolo[2,3-d]pyrimidine-5-carboxamide] | – | 7 nM | – | 103% | B (Category B=SBP in SHRs 20-40 mmHg) | – |
| Nc1nc(-c2cn3ccnc3c(CCCC(F)(F)F)n2)nc2c1C(c1ccccn1)(C1CC1)C(=O)N2 (stereo not drawn) [Example 383B, 4-Amino-5-cyclopropyl-5-(pyridin-2-yl)-2-(8-(4,4,4-trifluorobutyl)imidazo[1,2-a]pyrazin-6-yl)-5H-pyrrolo[2,3-d]pyrimidin-6(7H)-one] | 137% | 98 nM | – | – | – | B (Category B=SBP in SHRs 20-40 mmHg) |
| COc1cn2cc(-c3nc(N)c4c(n3)NC(=O)C4(C)c3ccc(F)cc3)nc(CCC(F)(F)C(F)(F)F)c2n1 (stereo not drawn) [Example 174A, 4-amino-5-(4-fluorophenyl)-2-(2-methoxy-8-(3,3,4,4,4-pentafluorobutyl)imidazo [1,2-a]pyrazin-6-yl)-5-methyl-5H-pyrrolo[2,3-d]pyrimidin-6(7H)-one] | 139% | 107 nM | – | – | – | B (Category B=SBP in SHRs 20-40 mmHg) |
| CC1(c2ccccc2)C(=O)Nc2nc(-c3cn4ccnc4c(Cc4c(F)ccc(F)c4F)n3)nc(N)c21 (stereo not drawn) [Example 100B, 4-amino-5-methyl-5-phenyl-2-(8-(2,3,6-trifluorobenzyl)imidazo[1,2-a]pyrazin-6-yl)-5H-pyrrolo[2,3-d]pyrimidin-6(7H)-one] | 96% | 13 nM | – | – | A (Category A=SBP in SHRs<20 mmHg) | – |
| Cc1nnc(C2(C3CC3)C(=O)Nc3nc(-c4cn5ccnc5c(CCC(F)(F)C(F)(F)F)n4)nc(N)c32)s1 (stereo not drawn) [Example 53A, 4-amino-5-cyclopropyl-5-(5-methyl-1,3,4-thiadiazol-2-yl)-2-(8-(3,3,4,4,4-pentafluorobutyl)imidazo[1,2-a]pyrazin-6-yl)-5H-pyrrolo[2,3-d]pyrimidin-6(7H)-one] | 104% | 132 nM | C (Category C=SBP in SHRs>40 mmHg) | – | – | – |
| Nc1nc(-c2cn3ccnc3c(CCCC(F)(F)F)n2)nc2c1C(c1ncc(Cl)cn1)(C1CC1)C(=O)N2 (stereo not drawn) [Example 373A, 4-amino-5-(5-chloropyrimidin-2-yl)-5-cyclopropyl-2-(8-(4,4,4-trifluorobutyl)imidazo[1,2-a]pyrazin-6-yl)-5H-pyrrolo[2,3-d]pyrimidin-6(7H)-one] | 114% | 26 nM | – | – | A (Category A=SBP in SHRs<20 mmHg) | – |
